The record followed here is ChEMBL document CHEMBL1201862, “PubChem BioAssay data set” (2004).

Active and inactive are the calls of the source.

In assay [1] the test system is Vero. Nature of the assay: cytotoxicity of synthesized analogs in Vero 76, SAR follow-up, cytotoxicity control for West Nile virus antiviral project, Vero 76 cells (AID 2414). The assay is classed as functional. The settings on record: Chlorocebus sabaeus.
Assay [2] concerns Vero. Put plainly: Vero E6 cell cytotoxicity, SAR follow-up, cytotoxicity control for West Nile virus antiviral project, synthesized analogs (AID 2244). The assay is classed as functional. Particulars: Chlorocebus sabaeus.
The nature of assay [3]: A Cell Based Assay for the Identification of Probe candidate Compounds with Anti- Venezuelan Equine Encephalitis virus. [Related pubchem assays: 2409, 2419, 1621, 2238, 2405, 2024, 2065, 2402, 2414, 1635, 1650, 2244 ]. The assay is classed as functional.
The test system of assay [4] is Vero. Nature of the assay: cytotoxicity of synthesized analogs in Vero cells, SAR follow-up, cytotoxicity control for West Nile virus antiviral project, cell-based, set II (AID 2402). The class given is functional. Particulars: Chlorocebus sabaeus.
Assay [5] concerns the target Glyceraldehyde-3-phosphate dehydrogenase (Homo sapiens, UniProt P04406).
In assay [6] the target is T1, Dual specificity protein phosphatase 6 (Rattus norvegicus, UniProt Q64346).
T1 sequence (Q64346 whole entry): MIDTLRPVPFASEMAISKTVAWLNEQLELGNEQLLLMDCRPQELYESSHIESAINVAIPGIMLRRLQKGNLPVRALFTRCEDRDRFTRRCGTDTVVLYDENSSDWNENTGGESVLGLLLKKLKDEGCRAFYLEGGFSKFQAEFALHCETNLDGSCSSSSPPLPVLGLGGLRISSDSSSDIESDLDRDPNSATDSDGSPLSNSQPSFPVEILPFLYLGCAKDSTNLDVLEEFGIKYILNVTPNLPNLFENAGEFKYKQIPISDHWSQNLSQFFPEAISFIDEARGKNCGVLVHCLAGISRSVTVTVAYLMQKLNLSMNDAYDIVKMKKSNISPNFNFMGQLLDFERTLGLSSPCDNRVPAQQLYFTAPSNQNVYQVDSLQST

In assay [7] the target is T2, Tyrosine-protein phosphatase non-receptor type 7 (Homo sapiens, UniProt P35236).
T2 sequence (P35236 whole entry): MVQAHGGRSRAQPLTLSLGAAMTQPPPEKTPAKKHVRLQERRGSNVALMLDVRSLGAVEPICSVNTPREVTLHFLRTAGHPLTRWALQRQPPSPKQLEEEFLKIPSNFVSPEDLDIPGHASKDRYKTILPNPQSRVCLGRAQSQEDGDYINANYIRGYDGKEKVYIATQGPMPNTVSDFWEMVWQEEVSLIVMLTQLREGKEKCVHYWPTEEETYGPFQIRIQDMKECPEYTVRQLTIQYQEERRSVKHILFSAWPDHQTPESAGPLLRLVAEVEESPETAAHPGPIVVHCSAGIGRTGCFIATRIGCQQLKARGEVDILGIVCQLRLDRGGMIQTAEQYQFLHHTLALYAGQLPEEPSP
The assay is classed as functional.

For assay [8], the target named is T1, Dual specificity protein phosphatase 6. The assay is classed as functional.
The target in assay [9] is Lysosomal acid glucosylceramidase (Homo sapiens, UniProt P04062). Put plainly: Dose response cell-based high throughput screening assay to identify enhancers of beta-glucosidase activity. [Related pubchem assays: 784 ]. The class given is functional.
Chain of Lysosomal acid glucosylceramidase (P04062 whole entry): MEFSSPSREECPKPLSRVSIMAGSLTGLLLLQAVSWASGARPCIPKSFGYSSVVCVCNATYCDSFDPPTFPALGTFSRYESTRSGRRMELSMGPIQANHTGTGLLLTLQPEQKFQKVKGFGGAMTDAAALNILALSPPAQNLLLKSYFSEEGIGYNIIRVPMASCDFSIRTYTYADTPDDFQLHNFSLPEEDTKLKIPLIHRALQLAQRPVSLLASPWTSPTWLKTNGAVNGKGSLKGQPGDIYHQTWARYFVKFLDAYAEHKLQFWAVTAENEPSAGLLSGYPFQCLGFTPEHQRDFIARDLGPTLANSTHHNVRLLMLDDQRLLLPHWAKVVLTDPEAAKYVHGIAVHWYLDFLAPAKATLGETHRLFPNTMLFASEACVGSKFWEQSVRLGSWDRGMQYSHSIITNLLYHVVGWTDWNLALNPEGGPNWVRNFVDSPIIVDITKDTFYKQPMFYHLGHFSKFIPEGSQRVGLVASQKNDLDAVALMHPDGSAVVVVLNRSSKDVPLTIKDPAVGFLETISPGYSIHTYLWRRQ

Chain of Glyceraldehyde-3-phosphate dehydrogenase (P04406 whole entry): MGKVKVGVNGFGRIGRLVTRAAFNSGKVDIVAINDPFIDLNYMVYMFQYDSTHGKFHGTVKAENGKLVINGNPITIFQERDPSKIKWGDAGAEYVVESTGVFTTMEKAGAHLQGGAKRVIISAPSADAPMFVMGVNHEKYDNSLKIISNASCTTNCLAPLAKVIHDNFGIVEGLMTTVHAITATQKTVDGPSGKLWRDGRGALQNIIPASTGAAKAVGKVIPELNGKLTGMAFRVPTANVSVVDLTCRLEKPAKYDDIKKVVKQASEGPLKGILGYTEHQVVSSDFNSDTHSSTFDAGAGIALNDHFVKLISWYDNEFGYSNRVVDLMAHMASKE

One may read the CC50 as the concentration at which the toxic effect on the cells reaches its halfway point. The term IC50 denotes the concentration that gives 50% inhibition. For the compound `COc1ccc(-c2csc(N(C(=O)c3ccccc3Cl)C(C)C)n2)cc1`, the figures for the CC50 in assay [1], in assay [2] and in assay [4] were 35.5 µM (active), 22.4 µM (active) and 13.5 µM (active), respectively. Also, the IC50 in assay [3] is > 66.6 µM (active).

On to `O=C(O)C1Nc2c(F)cccc2C2C=CCC12` (centres undefined), for which the concentration for half-maximal inhibition (IC50) in assay [5] is > 100 µM (not active); in assay [6], 19.8 µM (active); in assay [7] it was 5.4 µM (active); in assay [8], 17.2 µM (active).

A word on the EC50: it is the concentration that produces a half-maximal response. For `COc1ccc(CNC(=O)CCCNS(=O)(=O)c2cccc3nonc23)cc1`, in assay [9], the EC50 is listed as > 50 µM (not active).
